According to PMC6982167, “Development of an Improved Peroxidase-Based High-Throughput Screening for the Optimization of D-Glycerate Dehydratase Activity” (International Journal of Molecular Sciences, 2020):

Tests used:
[1] = molecular target: T1, SsDHAD (dihydroxyacid dehydratase from Sulfolobus solfataricus) (Saccharolobus solfataricus, UniProt Q97UB2); assay: discontinuous dehydration assay, pyruvate by HPLC; format: biochemical; conditions: supplied as D/L-glycerate 40 mM, pH 7.0, 50 °C, 60 min
T1 construct: gene ilvD; full-length synthetic gene in pET24a(+) via NdeI/XhoI, reverse primer carries stop codon (no tag); E. coli BL21(DE3); heat step 70 °C with 2-mercaptoethanol, desalted; iron-sulfur cluster

[2] = molecular target: T1, SsDHAD (dihydroxyacid dehydratase from Sulfolobus solfataricus); assay: discontinuous dehydration assay, HPLC (2-keto-3-deoxygluconate); format: biochemical; conditions: 20 mM D-gluconate, 50 °C, 60 min

T1 sequence (Q97UB2 whole entry): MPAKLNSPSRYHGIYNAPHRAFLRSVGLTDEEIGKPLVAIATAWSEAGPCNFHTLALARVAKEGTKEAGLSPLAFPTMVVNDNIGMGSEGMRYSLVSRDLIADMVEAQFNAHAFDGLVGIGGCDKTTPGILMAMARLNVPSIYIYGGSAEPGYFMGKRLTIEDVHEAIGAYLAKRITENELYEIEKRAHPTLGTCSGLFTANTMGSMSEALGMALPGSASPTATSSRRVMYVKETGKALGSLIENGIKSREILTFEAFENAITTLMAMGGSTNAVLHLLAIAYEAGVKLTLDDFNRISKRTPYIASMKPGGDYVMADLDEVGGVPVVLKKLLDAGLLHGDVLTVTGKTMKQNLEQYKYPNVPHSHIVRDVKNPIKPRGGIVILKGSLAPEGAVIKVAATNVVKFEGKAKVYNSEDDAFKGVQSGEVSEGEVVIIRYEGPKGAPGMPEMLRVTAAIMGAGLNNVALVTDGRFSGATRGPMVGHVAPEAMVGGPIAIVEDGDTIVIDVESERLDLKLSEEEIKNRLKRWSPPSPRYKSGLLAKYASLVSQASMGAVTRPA

Structure (SMILES)	specific activity [1]	specific activity [2]
O=C(O)[C@H](O)CO [D-glycerate]	wildtype showed an activity for the dehydration of D-glycerate	
O=C(O)[C@H](O)[C@@H](O)[C@H](O)[C@H](O)CO [D-gluconate]		we also tested the conversion of D-gluconate to 2-keto-deoxy gluconate
